Results reported in ChEMBL document CHEMBL3217516, “Library synthesis and cytotoxicity of a family of 2-phenylacrylonitriles and discovery of an estrogen dependent breast cancer lead compound” (Medchemcomm, 2011).

How the values were obtained:
Type in all cases: functional
[1] = Cytotoxicity against human MIA cells after 72 hrs by MTT assay
HT-29 = experiment: Cytotoxicity against human HT-29 cells after 72 hrs by MTT assay; conditions: HT-29, 72 h
A-431 = experiment: Cytotoxicity against human A431 cells after 72 hrs by MTT assay; conditions: A-431, 72 h
[2] = Cytotoxicity against human SJ-G2 cells after 72 hrs by MTT assay; conditions: SJ-G2, 72 h
SW480 = experiment: Cytotoxicity against human SW480 cells after 72 hrs by MTT assay; conditions: SW480, 72 h
A2780 = experiment: Cytotoxicity against human A2780 cells after 72 hrs by MTT assay; conditions: A2780, 72 h
[3] = Cytotoxicity against human H460 cells after 72 hrs by MTT assay; conditions: NCI-H460, 72 h
DU-145 = experiment: Cytotoxicity against human DU145 cells after 72 hrs by MTT assay; conditions: DU-145, 72 h
[4] = Cytotoxicity against human BE(2)-C cells after 72 hrs by MTT assay
MCF7 = experiment: Cytotoxicity against human MCF7 cells after 72 hrs by MTT assay; conditions: MCF7, 72 h

| SMILES | GI50 [1] | GI50 (HT-29) | GI50 (A-431) | GI50 [2] | GI50 (SW480) | GI50 (A2780) | GI50 [3] | GI50 (DU-145) | GI50 [4] | GI50 (MCF7) |
| --- | --- | --- | --- | --- | --- | --- | --- | --- | --- | --- |
| N#C/C(=C\c1ccc(F)cc1)c1ccc(Cl)c(Cl)c1 | 11 µM | – | – | – | – | – | – | – | – | – |
| COc1ccc(/C=C(\C#N)c2ccc(Cl)c(Cl)c2)cc1 | 0.7 µM | – | – | – | – | – | – | – | – | – |
| N#C/C(=C\c1ccc[nH]1)c1ccccc1 | 81 µM | 41 µM | 57 µM | 46 µM | 26 µM | 25 µM | 81 µM | > 100 µM | 61 µM | 17 µM |
| N#C/C(=C\c1ccc[nH]1)c1ccc([N+](=O)[O-])cc1 | 34 µM | 25 µM | 27 µM | 24 µM | 24 µM | 18 µM | 32 µM | 26 µM | 22 µM | 18 µM |
| N#C/C(=C\c1ccc[nH]1)c1ccc(F)cc1 | 63 µM | 31 µM | 37 µM | 30 µM | 24 µM | 25 µM | 52 µM | 59 µM | 43 µM | 15 µM |
| N#C/C(=C\c1ccc[nH]1)c1ccc(Cl)cc1 | 38 µM | 18 µM | 23 µM | 20 µM | 22 µM | 18 µM | 19 µM | 37 µM | 21 µM | 4 µM |
| N#C/C(=C\c1ccc(O)cc1)c1ccc(Cl)c(Cl)c1 | 28 µM | 30 µM | 21 µM | 21 µM | 36 µM | 20 µM | 26 µM | 45 µM | 22 µM | 23 µM |
| CC(=O)Oc1ccc(/C=C(\C#N)c2ccc(Cl)c(Cl)c2)cc1 | 38 µM | 18 µM | 25 µM | 21 µM | 27 µM | 18 µM | 33 µM | 47 µM | 22 µM | 25 µM |
| N#C/C(=C\c1ccncc1)c1ccc(Cl)c(Cl)c1 | 22 µM | 18 µM | 26 µM | 22 µM | 18 µM | 18 µM | 9.4 µM | 24 µM | 16 µM | 15 µM |
| N#C/C(=C\c1cc(O)cc(O)c1)c1ccc(Cl)c(Cl)c1 | > 100 µM | > 100 µM | 88 µM | 95 µM | 90 µM | 93 µM | > 100 µM | > 100 µM | > 100 µM | 28 µM |
| N#CC(Cc1ccc[nH]1)c1ccc(F)cc1 (configuration not stated) | 90 µM | 73 µM | 89 µM | 86 µM | 78 µM | 69 µM | 88 µM | 91 µM | 75 µM | 65 µM |
| N#CC(Cc1ccc[nH]1)c1ccc(Cl)cc1 (configuration not stated) | 58 µM | 37 µM | 58 µM | 52 µM | 53 µM | 26 µM | 58 µM | 60 µM | 45 µM | 26 µM |
| N#CC(Cc1ccc[nH]1)c1ccc([N+](=O)[O-])cc1 (configuration not stated) | 82 µM | 67 µM | 78 µM | 87 µM | 70 µM | 29 µM | 64 µM | 90 µM | 65 µM | 37 µM |
| CCCC/C=C(\C#N)c1ccc(Cl)c(Cl)c1 | 95 µM | 53 µM | 88 µM | 70 µM | 68 µM | 24 µM | 100 µM | 87 µM | 73 µM | 49 µM |
| N#C/C(=C/c1ccc2ccccc2c1)C(=O)c1ccc[nH]1 | < 10 µM | < 10 µM | < 10 µM | < 10 µM | < 10 µM | < 10 µM | < 10 µM | < 10 µM | < 10 µM | 12 µM |
| Cc1ccc(/C=C(/C#N)C(=O)c2ccc[nH]2)cc1 | 27 µM | 14 µM | < 10 µM | 20 µM | 14 µM | 19 µM | 11 µM | < 10 µM | 11 µM | 39 µM |
| N#C/C(=C/c1ccc(Cl)cc1)C(=O)c1ccc[nH]1 | 59 µM | 54 µM | 31 µM | 53 µM | 68 µM | 75 µM | 38 µM | 32 µM | 63 µM | 84 µM |
| N#C/C(=C/c1ccc([N+](=O)[O-])cc1)C(=O)c1ccc[nH]1 | < 10 µM | < 10 µM | < 10 µM | < 10 µM | < 10 µM | 19 µM | < 10 µM | < 10 µM | 19 µM | 19 µM |
| N#C/C(=C/c1ccc(Cl)c(Cl)c1)C(=O)c1ccc[nH]1 | < 10 µM | < 10 µM | < 10 µM | 10 µM | < 10 µM | < 10 µM | < 10 µM | < 10 µM | 14 µM | 14 µM |
| N#C/C(=C/c1ccc(O)cc1)C(=O)c1ccc[nH]1 | 11 µM | < 10 µM | < 10 µM | < 10 µM | < 10 µM | < 10 µM | < 10 µM | < 10 µM | < 10 µM | 15 µM |
| COc1ccc(/C=C(/C#N)C(=O)c2ccc[nH]2)cc1 | < 10 µM | < 10 µM | 13 µM | < 10 µM | < 10 µM | < 10 µM | 24 µM | < 10 µM | < 10 µM | 22 µM |
| Cc1ccc(/C=C(\C#N)c2ccc(Cl)c(Cl)c2)cc1 | 2 µM | 1.6 µM | 1.8 µM | 2.1 µM | 2.3 µM | 2 µM | 2.1 µM | 2.2 µM | 2.2 µM | 2.2 µM |
| N#C/C(=C\c1ccc2ccccc2c1)c1ccc(Cl)c(Cl)c1 | 2.1 µM | 1.6 µM | 1.8 µM | 2.3 µM | 2.3 µM | 1.8 µM | 1.7 µM | 2.7 µM | 1.9 µM | 1.5 µM |
| N#C/C(=C\c1ccc(Cl)cc1)c1ccc(Cl)c(Cl)c1 | 4 µM | 2.5 µM | 4.3 µM | 6.1 µM | 5 µM | 4 µM | 4.8 µM | 12 µM | 4.1 µM | 4.3 µM |
| N#C/C(=C\c1ccc(Br)cc1)c1ccc(Cl)c(Cl)c1 | 21 µM | 20 µM | 20 µM | 22 µM | 22 µM | 20 µM | 21 µM | 26 µM | 21 µM | 16 µM |
